Laboratory results from US9822103B2, “Inhibitors of lysine methyl transferase” (priority 2013, dated 2017).

Biological target: recombinant EZH2-641F complex (EZH2 Y641F/EED/SUZ12/RbAp48/AEBP2) (Homo sapiens (Human), UniProt Q15910, Y641F)
Test: EZH2 Histone Methyl Transferase Assay (scintillation proximity assay)
Type: biochemical
Settings: 350 nM histone peptide substrate, 500 nM 3H-SAM, 3 hours room temperature
Procedure: EZH2 Histone Methyl Transferase Assay
The effectiveness of compounds of the present invention as inhibitors of histone methyl transferases can be readily tested by assays known to those skilled in the art. For example, in vitro histone methyl transferase assays may be conducted with a relevant purified histone methyl transferase and an appropriate synthetic substrate to determine the inhibitory activity of the compounds. Assays for inhibition of EZH2 by the instant compounds were performed in 384-well plates with reaction mixtures containing 350 nM of histone peptide substrate (ATKAAR-K(Me2)-SAPATGGVKKPHRYRPG-GK(Biotin), 500 nM S-[methyl-^3H]adenosyl-L-methionine (55-85 Ci/mmol), 50 mM Tris-HCl (pH 9.0), 50 mM NaCl, 1 mM dithiothreitol, Tween-20 at 0.01% and fatty-acid free bovine serum albumin at 0.01%, and recombinant EZH2-641F complex (EZH2 Y641F/EED/SUZ12/RbAp48/AEBP2) at 5 nM (>98% purity, BPS Bioscience) or 15 nM (50% purity, in-house). Reaction mixtures were incubated at room temperature for 3 hours, and the reactions were terminated by 0.005% poly-L-lysine solution in 20 mM Tris-HCl (pH 7.5) and 150 mM NaCl. Reaction products were captured by binding to strepavidin-conjugated imaging beads. Incorporation of radioactive methyl group into the histone peptide substrate was determined in Leadseeker (GE Healthcare) by means of scintillation proximity assay. Dose response curves were generated to determine the concentration required to inhibit 50% of methyl transferase activity (EC50). Compounds were dissolved at 10 mM in dimethylsulfoxide (DMSO) and evaluated at eleven concentrations. EC50 values were derived by non-linear regression analysis.

Chain of recombinant EZH2-641F complex (EZH2 Y641F/EED/SUZ12/RbAp48/AEBP2) (Q15910 whole entry Y641F): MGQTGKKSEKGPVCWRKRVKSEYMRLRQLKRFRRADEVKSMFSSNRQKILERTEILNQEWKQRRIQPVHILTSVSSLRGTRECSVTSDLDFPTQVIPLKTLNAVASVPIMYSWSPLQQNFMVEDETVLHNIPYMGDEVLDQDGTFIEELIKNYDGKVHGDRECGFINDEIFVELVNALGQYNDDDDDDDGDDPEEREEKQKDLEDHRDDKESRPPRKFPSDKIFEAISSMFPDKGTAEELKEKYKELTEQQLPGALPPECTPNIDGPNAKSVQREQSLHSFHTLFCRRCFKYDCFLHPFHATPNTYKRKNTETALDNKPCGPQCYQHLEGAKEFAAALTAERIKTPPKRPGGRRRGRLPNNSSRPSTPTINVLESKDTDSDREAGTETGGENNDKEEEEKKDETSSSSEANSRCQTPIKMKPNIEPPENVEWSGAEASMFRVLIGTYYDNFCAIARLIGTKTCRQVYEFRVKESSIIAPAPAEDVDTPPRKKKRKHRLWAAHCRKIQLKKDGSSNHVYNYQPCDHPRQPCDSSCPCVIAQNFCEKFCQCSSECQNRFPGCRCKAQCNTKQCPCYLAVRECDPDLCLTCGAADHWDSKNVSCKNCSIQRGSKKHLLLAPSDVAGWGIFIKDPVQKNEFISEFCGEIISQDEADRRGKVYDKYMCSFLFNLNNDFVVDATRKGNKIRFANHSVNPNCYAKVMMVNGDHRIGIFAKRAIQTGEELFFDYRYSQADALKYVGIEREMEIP
Chain of recombinant EZH2-641F complex (EZH2 Y641F/EED/SUZ12/RbAp48/AEBP2) (O75530 whole entry partner): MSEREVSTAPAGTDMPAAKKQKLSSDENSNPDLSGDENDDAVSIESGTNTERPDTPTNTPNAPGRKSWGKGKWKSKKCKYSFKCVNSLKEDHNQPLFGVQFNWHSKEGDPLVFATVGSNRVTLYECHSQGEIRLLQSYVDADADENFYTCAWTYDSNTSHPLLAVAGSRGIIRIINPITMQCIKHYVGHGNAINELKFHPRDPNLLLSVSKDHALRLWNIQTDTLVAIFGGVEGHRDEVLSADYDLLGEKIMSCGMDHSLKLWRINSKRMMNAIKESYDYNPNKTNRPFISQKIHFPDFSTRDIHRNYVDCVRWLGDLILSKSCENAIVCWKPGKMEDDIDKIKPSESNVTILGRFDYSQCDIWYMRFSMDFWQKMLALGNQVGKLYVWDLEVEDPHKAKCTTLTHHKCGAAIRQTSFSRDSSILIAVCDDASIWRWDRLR
Chain of recombinant EZH2-641F complex (EZH2 Y641F/EED/SUZ12/RbAp48/AEBP2) (Q15022 whole entry partner): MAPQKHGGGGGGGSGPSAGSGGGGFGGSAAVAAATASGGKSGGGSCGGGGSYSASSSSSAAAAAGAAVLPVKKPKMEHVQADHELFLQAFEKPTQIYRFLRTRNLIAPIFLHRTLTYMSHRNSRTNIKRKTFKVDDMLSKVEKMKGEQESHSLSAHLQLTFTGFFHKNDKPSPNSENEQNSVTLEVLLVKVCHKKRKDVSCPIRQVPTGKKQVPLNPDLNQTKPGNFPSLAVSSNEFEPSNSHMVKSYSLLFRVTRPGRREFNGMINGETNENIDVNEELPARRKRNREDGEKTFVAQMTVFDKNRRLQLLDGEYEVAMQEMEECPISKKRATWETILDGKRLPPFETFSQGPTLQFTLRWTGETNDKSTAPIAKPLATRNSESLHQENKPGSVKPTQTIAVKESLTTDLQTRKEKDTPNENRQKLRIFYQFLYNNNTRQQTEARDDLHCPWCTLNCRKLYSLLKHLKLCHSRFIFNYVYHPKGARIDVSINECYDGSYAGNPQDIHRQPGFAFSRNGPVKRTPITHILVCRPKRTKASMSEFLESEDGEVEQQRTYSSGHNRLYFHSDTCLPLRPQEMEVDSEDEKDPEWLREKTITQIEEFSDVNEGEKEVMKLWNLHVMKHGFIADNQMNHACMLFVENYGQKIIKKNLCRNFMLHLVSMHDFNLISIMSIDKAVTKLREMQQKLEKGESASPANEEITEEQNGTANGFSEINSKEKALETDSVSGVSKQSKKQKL
Chain of recombinant EZH2-641F complex (EZH2 Y641F/EED/SUZ12/RbAp48/AEBP2) (Q09028 whole entry partner): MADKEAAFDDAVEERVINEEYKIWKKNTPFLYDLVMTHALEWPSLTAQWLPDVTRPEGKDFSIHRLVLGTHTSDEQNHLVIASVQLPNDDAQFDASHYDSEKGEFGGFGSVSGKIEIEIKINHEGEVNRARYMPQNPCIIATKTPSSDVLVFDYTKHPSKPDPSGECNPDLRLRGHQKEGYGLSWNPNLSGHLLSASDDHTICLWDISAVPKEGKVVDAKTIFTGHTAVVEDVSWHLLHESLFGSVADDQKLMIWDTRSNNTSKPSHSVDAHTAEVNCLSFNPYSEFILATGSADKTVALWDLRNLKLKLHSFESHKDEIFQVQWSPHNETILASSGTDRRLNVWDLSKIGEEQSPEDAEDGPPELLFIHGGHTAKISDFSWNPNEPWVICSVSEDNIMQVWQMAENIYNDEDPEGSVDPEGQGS
Chain of recombinant EZH2-641F complex (EZH2 Y641F/EED/SUZ12/RbAp48/AEBP2) (Q6ZN18 whole entry partner): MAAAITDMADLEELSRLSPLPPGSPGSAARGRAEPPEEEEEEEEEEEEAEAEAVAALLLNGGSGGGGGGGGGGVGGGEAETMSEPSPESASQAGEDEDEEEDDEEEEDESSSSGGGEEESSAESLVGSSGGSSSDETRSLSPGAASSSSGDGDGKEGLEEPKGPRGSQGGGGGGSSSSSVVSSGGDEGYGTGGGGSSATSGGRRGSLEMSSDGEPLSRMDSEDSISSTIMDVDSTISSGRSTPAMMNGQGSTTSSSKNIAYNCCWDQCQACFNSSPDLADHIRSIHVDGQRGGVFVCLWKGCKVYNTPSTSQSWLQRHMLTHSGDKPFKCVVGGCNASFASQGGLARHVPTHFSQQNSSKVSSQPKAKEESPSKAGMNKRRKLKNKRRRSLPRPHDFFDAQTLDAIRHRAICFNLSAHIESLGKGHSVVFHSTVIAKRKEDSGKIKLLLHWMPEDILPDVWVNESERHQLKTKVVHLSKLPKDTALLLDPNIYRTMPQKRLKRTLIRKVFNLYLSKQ

Compound	IC50 [µM]
Cc1cc(C)c(CNC(=O)c2cc(Br)c3c(c2)[C@@H](C)[C@H](C)O3)c(=O)[nH]1 (racemic) [Example 40, rac-(2S,3R)-7-bromo-N-((4,6-dimethyl-2-oxo-1,2-dihydropyridin-3-yl)methyl)-2,3-dimethyl-2,3-dihydrobenzofuran-5-carboxamide]	> 1
Cc1cc(C)c(CNC(=O)c2cc(Br)c3c(c2)[C@@H]2CCC[C@]2(C)O3)c(=O)[nH]1 (racemic) [Example 64, rac-(3aS,8bS)-5-Bromo-N-((4,6-dimethyl-2-oxo-1,2-dihydropyridin-3-yl)methyl)-3a-methyl-2,3,3a,8b-tetrahydro-1H-cyclopenta[b]benzofuran-7-carboxamide]	> 1
Cc1cc(C)c(CNC(=O)c2cc(-c3ccc(N4CCNCC4)nc3)c3c(c2)[C@@H]2CCC[C@]2(C)O3)c(=O)[nH]1 (racemic) [Example 65, rac-(3aS,8bS)—N-((4,6-Dimethyl-2-oxo-1,2-dihydropyridin-3-yl)methyl)-3a-methyl-5-(6-(piperazin-1-yl)pyridin-3-yl)-2,3,3a,8b-tetrahydro-1H-cyclopenta[b]benzofuran-7-carboxamide]	< 0.5
COc1ccc(-c2cc(C(=O)NCc3c(C)cc(C)[nH]c3=O)cc3c2O[C@@]2(C)CCC[C@@H]32)cn1 (racemic) [Example 66, rac-(3aS,8bS)—N-((4,6-Dimethyl-2-oxo-1,2-dihydropyridin-3-yl)methyl)-5-(6-methoxypyridin-3-yl)-3a-methyl-2,3,3a,8b-tetrahydro-1H-cyclopenta[b]benzofuran-7-carboxamide]	0.5 to 1
Cc1cc(C)c(CNC(=O)c2cc(-c3ccc(CN4CCCCC4)cc3)c3c(c2)[C@@H]2CCC[C@]2(C)O3)c(=O)[nH]1 (racemic) [Example 67, rac-(3aS,8bS)—N-((4,6-Dimethyl-2-oxo-1,2-dihydropyridin-3-yl)methyl)-3a-methyl-5-(4-(piperidin-1-ylmethyl)phenyl)-2,3,3a,8b-tetrahydro-1H-cyclopenta[b]benzofuran-7-carboxamide]	0.5 to 1
Cc1cc(C)c(CNC(=O)c2cc(-c3ccc(N4CCNCC4)cc3)c3c(c2)[C@@H]2CCC[C@]2(C)O3)c(=O)[nH]1 (racemic) [Example 68, rac-(3aS,8bS)—N-((4,6-Dimethyl-2-oxo-1,2-dihydropyridin-3-yl)methyl)-3a-methyl-5-(4-(piperazin-1-yl)phenyl)-2,3,3a,8b-tetrahydro-1H-cyclopenta[b]benzofuran-7-carboxamide]	0.5 to 1
Cc1cc(C)c(CNC(=O)c2cc3c(c(Br)c2C)O[C@@]2(C)CCC[C@@H]32)c(=O)[nH]1 (racemic) [Example 69, rac-(3aS,8bS)-5-Bromo-N-((4,6-dimethyl-2-oxo-1,2-dihydropyridin-3-yl)methyl)-3a,6-dimethyl-2,3,3a,8b-tetrahydro-1H-cyclopenta[b]benzofuran-7-carboxamide]	< 0.5
Cc1cc(C)c(CNC(=O)c2cc(Br)c3c(c2)CC(C)(C)O3)c(=O)[nH]1 [Example 1, 7-Bromo-N-((4,6-dimethyl-2-oxo-1,2-dihydropyridin-3-yl)methyl)-2,2-dimethyl-2,3-dihydrobenzofuran-5-carboxamide]	< 0.5
Cc1cc(C)c(CNC(=O)c2ccc3c(c2)CC(C)(C)O3)c(=O)[nH]1 [Example 2, N-((4,6-Dimethyl-2-oxo-1,2-dihydropyridin-3-yl)methyl)-2,2-dimethyl-2,3-dihydrobenzofuran-5-carboxamide]	> 1
Cc1cc(C)c(CNC(=O)c2cc(Cl)c3c(c2)CC(C)(C)O3)c(=O)[nH]1 [Example 3, 7-Chloro-N-((4,6-dimethyl-2-oxo-1,2-dihydropyridin-3-yl)methyl)-2,2-dimethyl-2,3-dihydrobenzofuran-5-carboxamide]	> 1
Cc1cc(C)c(CNC(=O)c2cc(F)c3c(c2)CC(C)(C)O3)c(=O)[nH]1 [Example 4, N-((4,6-Dimethyl-2-oxo-1,2-dihydropyridin-3-yl)methyl)-7-fluoro-2,2-dimethyl-2,3-dihydrobenzofuran-5-carboxamide]	> 1
Cc1cc(C)c(CNC(=O)c2cc(C)c3c(c2)CC(C)(C)O3)c(=O)[nH]1 [Example 6, N-((4,6-Dimethyl-2-oxo-1,2-dihydropyridin-3-yl)methyl)-2,2,7-trimethyl-2,3-dihydrobenzofuran-5-carboxamide]	> 1
Cc1cc(C)c(CNC(=O)c2cc(Br)c3c(c2C)CC(C)(C)O3)c(=O)[nH]1 [Example 7, 7-Bromo-N-((4,6-dimethyl-2-oxo-1,2-dihydropyridin-3-yl)methyl)-2,2,4-trimethyl-2,3-dihydrobenzofuran-5-carboxamide]	0.5 to 1
Cc1cc(C)c(CNC(=O)c2ccc3c(c2C)CC(C)(C)O3)c(=O)[nH]1 [Example 8, N-((4,6-Dimethyl-2-oxo-1,2-dihydropyridin-3-yl)methyl)-2,2,4-trimethyl-2,3-dihydrobenzofuran-5-carboxamide]	> 1
Cc1cc(C)c(CNC(=O)c2cc(C)c3c(c2C)CC(C)(C)O3)c(=O)[nH]1 [Example 9, N-((4,6-Dimethyl-2-oxo-1,2-dihydropyridin-3-yl)methyl)-2,2,4,7-tetramethyl-2,3-dihydrobenzofuran-5-carboxamide]	> 1
Cc1cc(C)c(CNC(=O)c2cc3c(c(-c4ccc(CN5CCOCC5)cc4)c2)OC(C)(C)C3)c(=O)[nH]1 [Example 10, N-((4,6-Dimethyl-2-oxo-1,2-dihydropyridin-3-yl)methyl)-2,2-dimethyl-7-(4-(morpholinomethyl)phenyl)-2,3-dihydrobenzofuran-5-carboxamide]	> 1
Cc1cc(C)c(CNC(=O)c2cc3c(c(-c4ccc(N5CCNCC5)nc4)c2)OC(C)(C)C3)c(=O)[nH]1 [Example 11, N-((4,6-Dimethyl-2-oxo-1,2-dihydropyridin-3-yl)methyl)-2,2-dimethyl-7-(6-(piperazin-1-yl)pyridin-3-yl)-2,3-dihydrobenzofuran-5-carboxamide]	< 0.5
Cc1cc(C)c(CNC(=O)c2cc3c(c(-c4ccc(N5CCOCC5)nc4)c2)OC(C)(C)C3)c(=O)[nH]1 [Example 12, N-((4,6-Dimethyl-2-oxo-1,2-dihydropyridin-3-yl)methyl)-2,2-dimethyl-7-(6-morpholinopyridin-3-yl)-2,3-dihydrobenzofuran-5-carboxamide]	< 0.5
Cc1cc(C)c(CNC(=O)c2cc3c(c(-c4cnc5ccccc5c4)c2)OC(C)(C)C3)c(=O)[nH]1 [Example 13, N-((4,6-Dimethyl-2-oxo-1,2-dihydropyridin-3-yl)methyl)-2,2-dimethyl-7-(quinolin-3-yl)-2,3-dihydrobenzofuran-5-carboxamide]	> 1
COc1ccc(-c2cc(C(=O)NCc3c(C)cc(C)[nH]c3=O)cc3c2OC(C)(C)C3)cn1 [Example 14, N-((4,6-Dimethyl-2-oxo-1,2-dihydropyridin-3-yl)methyl)-7-(6-methoxypyridin-3-yl)-2,2-dimethyl-2,3-dihydrobenzofuran-5-carboxamide]	0.5 to 1
Cc1cc(C)c(CNC(=O)c2cc(/C=C/c3ccccc3)c3c(c2)CC(C)(C)O3)c(=O)[nH]1 [Example 15, (E)-N-((4,6-Dimethyl-2-oxo-1,2-dihydropyridin-3-yl)methyl)-2,2-dimethyl-7-styryl-2,3-dihydrobenzofuran-5-carboxamide]	> 1
Cc1cc(C)c(CNC(=O)c2cc3c(c(-c4ccc(C(=O)N5CCN(C)CC5)cc4)c2)OC(C)(C)C3)c(=O)[nH]1 [Example 16, N-((4,6-Dimethyl-2-oxo-1,2-dihydropyridin-3-yl)methyl)-2,2-dimethyl-7-(4-(4-methylpiperazine-1-carbonyl)phenyl)-2,3-dihydrobenzofuran-5-carboxamide]	> 1
Cc1cc(C)c(CNC(=O)c2cc3c(c(-c4cnc(N5CCN(C(=O)OC(C)(C)C)CC5)nc4)c2)OC(C)(C)C3)c(=O)[nH]1 [Example 17, t-Butyl 4-(5-(5-(((4,6-dimethyl-2-oxo-1,2-dihydropyridin-3-yl)methyl)carbamoyl)-2,2-dimethyl-2,3-dihydrobenzofuran-7-yl)pyrimidin-2-yl)piperazine-1-carboxylate]	< 0.5
Cc1cc(C)c(CNC(=O)c2cc3c(c(-c4ccc(N5CCNCC5)cc4)c2)OC(C)(C)C3)c(=O)[nH]1 [Example 18, N-((4,6-Dimethyl-2-oxo-1,2-dihydropyridin-3-yl)methyl)-2,2-dimethyl-7-(4-(piperazin-1-yl)phenyl)-2,3-dihydrobenzofuran-5-carboxamide]	< 0.5
Cc1cc(C)c(CNC(=O)c2cc3c(c(-c4ccc(CN5CCCCC5)cc4)c2)OC(C)(C)C3)c(=O)[nH]1 [Example 19, N-((4,6-Dimethyl-2-oxo-1,2-dihydropyridin-3-yl)methyl)-2,2-dimethyl-7-(4-(piperidin-1-ylmethyl)phenyl)-2,3-dihydrobenzofuran-5-carboxamide]	> 1
